Laboratory results taken from PubChem BioAssay (NCI).
Values joined by “and” are separate entries in the source; they are usually repeats but may differ in a detail not shown here. Identical values can stand only once.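 96-well plates; 48 h exposure; 5 concentrations. Endpoints by linear interpolation between flanking doses. Not reached: highest tested concentration assigned. Here, GI50 denotes the concentration required for 50% inhibition of growth. Definition used: TGI = concentration required for complete inhibition of growth.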

Legend:
Assay in all cases: inhibition of tumour cell growth, NCI panel, 48 h
SK-MEL-5 melanoma = test system: SK-MEL-5 melanoma
M14 melanoma = test system: M14 melanoma
HOP-62 NSCLC = test system: HOP-62 NSCLC
RXF 393 renal = test system: RXF 393 renal
IGROV1 ovarian = test system: IGROV1 ovarian
K-562 leukemia = test system: K-562 leukemia
U251 CNS = test system: U251 CNS
UACC-62 melanoma = test system: UACC-62 melanoma
MCF7 breast = test system: MCF7 breast
T-47D breast = test system: T-47D breast

Compound | TGI (SK-MEL-5 melanoma) | TGI (M14 melanoma) | TGI (HOP-62 NSCLC) | TGI (RXF 393 renal) | TGI (IGROV1 ovarian) | TGI (K-562 leukemia) [µM] | TGI (U251 CNS) | TGI (UACC-62 melanoma) | GI50 (MCF7 breast) [µM] | TGI (MCF7 breast) [µM] | GI50 (HOP-62 NSCLC) [µM] | GI50 (RXF 393 renal) [µM] | GI50 (T-47D breast) [µM] | TGI (T-47D breast) [µM] | GI50 (IGROV1 ovarian) | GI50 (K-562 leukemia) [µM] | GI50 (U251 CNS) | GI50 (SK-MEL-5 melanoma) | GI50 (M14 melanoma) | GI50 (UACC-62 melanoma) [µM]
Cc1ccc(-c2nc3c(C(=O)NCCN(C)C)cccc3[nH]2)cc1 | 26.6 µM | 29.2 µM | 36.1 µM | 24.1 µM | 41.9 µM | 50.5 | 61.1 µM | 32.5 µM |  |  |  |  |  |  |  |  |  |  |  | 
CC(C)[Si](OCC1CC(C[C@H]2CC(C[C@H]3C[C@@H](CO[Si](C(C)C)(C(C)C)C(C)C)OC(C)(C)O3)OC(C)(C)O2)OC(C)(C)O1)(C(C)C)C(C)C (some centres undefined) | > 100 µM | > 100 µM | > 100 µM | > 100 µM | > 100 µM | > 100 | > 100 µM | > 100 µM |  |  |  |  |  |  |  |  |  |  |  | 
CC1CC(=O)C(CC(=O)O)C1C(C(=O)C(=O)Nc1c(C#N)cccc1[N+](=O)[O-])[N+](=O)[O-] (centres undefined) | > 100 µM | > 100 µM | > 100 µM | > 100 µM | > 100 µM | > 100 | > 100 µM | > 100 µM |  |  |  |  |  |  |  |  |  |  |  | 
S=P1(c2ccccc2)Nc2ccc(Cl)cc2N1 (centres undefined) | > 100 µM | 56.9 µM | > 100 µM |  | > 100 µM | > 100 | > 100 µM | 26.4 µM |  |  |  |  |  |  |  |  |  |  |  | 
Cn1cnc([N+](=O)[O-])c1SC1=NCCS1 | > 100 µM | > 100 µM | > 100 µM |  | > 100 µM | > 100 | > 100 µM | > 100 µM |  |  |  |  |  |  |  |  |  |  |  | 
Cc1ccc(NC(=O)C(=O)C2NC(=S)NC2=O)c([N+](=O)[O-])c1 (centres undefined) | > 100 µM | > 100 µM | > 100 µM | > 100 µM | > 100 µM | > 100 | > 100 µM | > 100 µM |  |  |  |  |  |  |  |  |  |  |  | 
COc1cc(C(=O)/C=C/c2c(-c3ccc(F)cc3)nc3ncccn23)cc(OC)c1OC |  |  | 24.5 µM | 4.09 µM | 9.53 µM | > 100 | 12.9 µM |  | 1.61 | 15.6 | 3.12 | 1.44 | 2.09 | 9.22 | 1.93 µM | 3.03 | 1.68 µM |  |  | 
C=CCC12CC(=O)C=C1CCC1(C2)OCCO1 (centres undefined) | > 100 µM | > 100 µM | > 100 µM | > 100 µM | > 100 µM | > 100 | > 100 µM | > 100 µM |  |  |  |  |  |  |  |  |  |  |  | 
C/C=C(\CCC1NCCc2c1[nH]c1ccccc21)[Si](C)(C)C (centres undefined) | 10.2 µM and 5.23 µM | 8.8 µM and 3.66 µM | 28.1 µM and 24.5 µM | 17.6 µM and 2.53 µM | 16.6 µM and 12.6 µM | 9.29 | 10.5 µM and 3.27 µM | 11.8 µM and 12.3 µM |  |  |  |  |  | 4.89 | 11.9 µM and 4 µM |  | 5.79 µM and 1.8 µM | 5.63 µM and 2.32 µM | 4.65 µM and 1.82 µM | 
O=C1Nc2ccccc2/C1=C/c1cn(C(=O)c2c(Cl)cccc2Cl)c2ccccc12 | 20.4 µM | 8.19 µM | 40.4 µM | 16.6 µM |  | > 100 | 15.5 µM | 19.9 µM |  |  | 12.8 | 4.14 | 4.13 | 93 |  | 3.14 | 3.47 µM | 7.52 µM | 2.34 µM | 4.8
Cc1ccc(S(=O)(=O)N/N=C/c2oc(-c3ccccc3Cl)c(-c3ccccc3Cl)c2[N+](=O)[O-])cc1 | 43.1 µM | > 100 µM | 43.5 µM | 28.4 µM | 73.3 µM | > 100 |  | 65.8 µM |  |  |  |  |  |  |  |  |  |  |  | 
